Data reported in patent US11243205B2, “Method of diagnosis of breast cancer” (LA TROBE UNIVERSITY, priority 2015, dated 2022).

What was measured:
PD-L1 = assay: FACS analysis for PD-L1 cell surface expression after interferon treatment; assay type: cell-based; conditions: IFNα 1000 IU/ml, 48 hours, **p<0.01
Protocol: A loss of IRF9 causes PD-L1 expression to be increased after IFNα stimulation. FACS analysis for PD-L1 cell surface expression using PE tagged anti-PD-L1, MIH5 (1:50). Cells were treated with IFNα (1000 IU/ml) or IFNγ (10 ng/ml) for 48 hours prior to FACS. Data is represented as normalised mean fluorescence intensity (MFI). Error bars represent SEM, n=3. Statistical significance values equal: **p<0.01.

4T1.2-Luc2 = assay: neo-adjuvant poly(I:C) therapy, primary tumour growth and survival; assay type: in vivo, Balb/c mice
Protocol: Female 8-week-old Balb/c mice were administered poly(I:C) (25 μg, I.V., thrice weekly) and/or doxorubicin (4 mg/kg, twice weekly) beginning 2 days post tumour cell inoculation (100,000 4T1.2-Luc2 IMFP). Differences in primary tumour growth were detectable 6 days after tumour cell inoculation using bioluminescent imaging (of four mice representative of the larger cohort) (A). Therapy was ceased and primary tumours were surgically removed and weighed 12 days post tumour cell injection (B). n=10 mice per group, error bars represent the 95% CI, *p<0.05, **p<0.01, ***p<0.001 using Student's t-tests.
Mice used in FIG. 2 continued to undergo weekly bioluminescent imaging to visualise the kinetics of metastatic spread. (A) Images taken 19 and 23 days post tumour cell inoculation are of the same four mice in identical order and representative of the larger cohort. (B) Mice were individually sacrificed at first signs of metastatic distress and dates recorded to generate Kaplan-Meier survival estimates. […]
Tumour-bearing mice are treated with poly(I:C), a stable derivative of poly(I:C):poly ICLC that is currently in clinical trials (Hiltonol™, Oncovir) or recombinant IFNα1 in early and late treatment settings and the impact of such treatments on immune activation and function, primary tumour growth and metastasis is measured. […]

4T1.2-luc2 cells = assay: poly(I:C) treatment of mice bearing 4T1.2-luc2 mammary fat pad tumours, metastasis by bioluminescence and QPCR; assay type: in vivo, balb/c mice; conditions: 25 ug poly(I:C) 3x weekly IV from day 4; primary tumour resected at 0.4 g; bioluminescence and QPCR of luciferase vs vimentin; *p<0.05, **p<0.01
Protocol: From day 4, mice were treated with 25 ug poly(I:C) or control 3× weekly IV. After primary tumour resection at 0.4 g, mice were monitored for metastasis by bioluminescence (A) and by QPCR analysis of luciferase expression compared to vimentin at end point (B). *p<0.05, **p<0.01.
Expression of Irf9 is knocked out in balb/c (66c14, 4T1) and C57 B1/6 (EO771, PyMT) mouse cell lines and the impact on tumour cell proliferation and orthotopic tumour growth and metastasis in vivo, is required. Associated changes in tumour infiltating and circulating immune cells, impact on tumour cell susceptibility to immune effector cells in vitro and the impact of NK cell specific loss of IFN signalling is measured. • a) Using TALEN technology (Boch J. TALEs of genome targeting. Nature biotechnology. 2011; 29(2):135-6) an Irf9 knockout 4T1 cell line has been generated (FIG. 5). This is repeated in 66c14, EO771 and PyMT cell lines. Given that Irf7 is induced by the ISGF3 complex of STAT1/2 and Irf9, Irf9 loss will likely directly result in reduction of Irf7. Irf7 we can also be knocked out directly in these cells. • The impact of Irf9 loss is measured on cellular proliferation using the SRB assay. […] The activation and function of NK cells is measured by measuring the expression of NKG2D, DNAM-1 and IFNγ on NKp46^+ NK cells. […]

| Substance | PD-L1 expression in cells with loss of IRF9 (PD-L1) | survival (Kaplan-Meier) (4T1.2-Luc2; neo-adjuvant therapy ceased day 12, mice sacrificed at first signs of metastatic distress, ***p<0.001) | primary tumour growth (4T1.2-Luc2; poly(I:C) 25 μg I.V. thrice weekly from 2 days post inoculation, bioluminescence day 6, tumour weight day 12) | metastasis to lung and bone (4T1.2-luc2 cells) |
| --- | --- | --- | --- | --- |
| IFNα | increased | – | – | – |
| poly(I:C) | – | prolongs survival | reduces primary tumour growth | reduces metastasis to lung and bone |
